# Measurements as given in patent US20140100290A1, “Method of treating a prostate condition” (priority 2012, published 2014).
# Experiments:
# Assay type in all cases: cell-based, Human
# [1] = tested on: LNCaP cells; experiment: Morphological analysis of LNCaP cells; conditions: 10 μM and 1000 μM, 48 hours, dose-dependent
# Procedure: (§1) Human metastatic prostate cancer cells, LNCaP, were obtained from ATCC (Manassas, Va., USA). Cells were grown in RPMI-1640 medium supplemented with 2mM glutamine, 10% FBS, 100 U/mL penicillin, and 100 μg/mL streptomycin. LNCaP cells were maintained in a humidified atmosphere of 5% CO2 at 37° C. in T-75 flasks and were subcultured when confluent. Experiments were conducted using cells with passage numbers ranging from 5-20.
# Prominent features of morphological changes occurring in a cell, such as cell shrinkage, rounding of cells, membrane blebbing, and formation of apoptotic bodies indicate induction of apoptosis or programmed cell death.
# In order to identify the morphological changes in LNCaP cells after treatment with carvacrol, 2×10^6 cells/well were seeded in flat-bottom, 6-well microtiter plates, allowed to grow for 24 hours, treated with 10 μM and 1000 μM of carvacrol, and incubated for a further 48 hours at 37° C. Post incubation, cells were washed twice with PBS, and microscopic photographs of morphological changes of the cells were captured using a fluorescent microscope, Axiovert 200M (Carl Zeiss MicroImaging Inc, NY, USA). 1.15% EtOH was used in solvent control.
# [2] = tested on: LNCaP cells; experiment: DNA fragmentation assay (Apoptotic DNA-Ladder Kit) in LNCaP cells; conditions: 10 μM and 1000 μM, 48 hours
# Procedure: as §1
# During apoptosis, pro-apoptotic proteins such as apoptosis-inducing factor (AIF), endonuclease G, and caspase-activated DNase (CAD) are released from the mitochondria, which occur after the cell has committed to die. AIF, after translocation to the nucleus, causes DNA fragmentation (˜50-300 kb pieces) and peripheral nuclear chromatin condensation which is referred to as “stage 1” condensation. Endonuclease G also cleaves nuclear chromatin to produce oligonucleosomal DNA fragments following its translocation to the nucleus. Both, AIF and endonuclease G function in caspase-independent manner. CAD subsequently released from mitochondria, after getting cleaved by activated caspase-3, is known to translocate into the nucleus leading to oligonucleosomal cleavage of DNA into 180 by fragments and a more pronounced chromatin condensation referred to as “stage 11” condensation.
# This cleaved DNA is easily observed as a “ladder” upon analysis by gel electrophoresis. […]
# [3] = tested on: cytochrome c release in LNCaP cells; experiment: Western blot analysis of cytochrome c release in LNCaP cells; conditions: 10 μM and 1000 μM, 48 h
# Procedure: as §1
# Western blotting is a widely used analytical technique for detection of specific proteins separated from one another, according to their size, by gel electrophoresis. Application of an electric current induces proteins on the gel to move on to the membrane (nitrocellulose or PVDF) placed next to it. Proteins on the gel get transferred on to the membrane which is subsequently stained with the antibody. Once detected, the target protein will be visualized as a band on a blotting membrane, X-ray film, or an imaging system. […]
# After maintaining constant agitation at 4° C. for 30 minutes, lysates were collected in microcentrifuge tubes and centrifuged at 12,000 rpm at 4° C. for 20 minutes. […] Protein concentration was determined using the Pierce® BCA protein assay kit. […] Western blot images are representative of at least 3 independent experiments, while quantification data represent mean±S.E.M. of n>3 experiments.
# [4] = tested on: PC-3 cells; experiment: Morphological analysis of PC-3 cells; conditions: 10 μM and 1000 μM, 48 h
# Procedure: Cell Line and Culture Conditions • Human metastatic, androgen insensitive prostate cancer cells, PC-3, were obtained from ATCC (Manassas, Va., USA). Cells were grown in F-12K medium supplemented with 2 mM glutamine, 10% FBS, 100 U/mL penicillin, and 100 μg/mL streptomycin. PC-3 cells were maintained in a humidified atmosphere of 5% CO2 at 37° C. in T-75 flasks and were subcultured when confluent.
# These typical features of apoptosis were used to evaluate the mechanism of decreased cell proliferation by carvacrol in PC-3 cells.
# In order to identify the morphological changes in PC-3 cells after treatment with carvacrol, 2×10^6 cells/well were seeded in flat-bottom, 6-well microtiter plates, allowed to grow for 24 h, then treated with 10 μM and 1000 μM of carvacrol, and incubated further for 48 h at 37° C. After incubation, cells were washed twice with PBS, and microscopic photographs of morphological changes of the cells were captured using a fluorescent microscope, Axiovert 200M (Carl Zeiss MicroImaging Inc, NY, USA). 1.15% EtOH was used as a solvent control.
structure (smiles),measurement,setting,value
Cc1ccc(C(C)C)cc1O [Carvacrol],morphological changes (features of apoptosis),[1],"typical features of apoptosis like rounding of cells, membrane blebbing, cell shrinkage and formation of apoptotic bodies were observed"
same,fragmentation of DNA,[2],Fragmentation of DNA was observed
same,"cytochrome c release (Western blot, densitometry vs solvent control)",[3],dose-dependent increase in cytochrome c release
same,morphological changes (features of apoptosis),[4],"exhibited typical features of apoptosis like rounding of cells, membrane blebbing, and cell shrinkage"
